We go through 1 compound from ChEMBL document CHEMBL3832039, “DailyMed|setid=8e4382de-df78-4821-b11e-c423442a7ff8 | DIOVAN - valsartan tablet|PD-Rx Pharmaceuticals, Inc”.

Holding throughout (assay type): ADME, organism-based
A short description of data set [1]: Apparent clearance of Valsartan following oral administration of 40 to 160 mg Valsartan, twice a day, to heart failure patients. The conditions noted are these: human, in vivo, dose Range 40 to 160 mg, dosed compound id 15, dosed compound name VALSARTAN, regimen Every 12h, tissue Plasma, read-out: CL(app) (converted).
Data set [2] in a line: (§1) Pharmacokinetic parameters for Valsartan following oral or intravenous administration of Valsartan solution. Particulars: human, in vivo, dosed compound id 15, dosed compound name VALSARTAN, tissue Plasma.
Data set [3] relates to Homo sapiens. Described as §1. The conditions noted are these: in vivo, po, dosed compound id 15, dosed compound name VALSARTAN

`CCCCC(=O)N(Cc1ccc(-c2ccccc2-c2nnn[nH]2)cc1)[C@H](C(=O)O)C(C)C` [VALSARTAN]: the CL/F in data set [1] was 75 mL/min. Also, the Tmax in data set [2] (po) lay in the range of 2 to 4 h. In data set [2] (route iv), the clearance is 33.3 mL/min and the half-life was 6 h. Also, the CL renal in data set [2] (route iv, read-out: CL_renal (converted)) is 10.3 mL/min. Further, the Vd in data set [2] (route iv, read-out: Vss) came out at 17 L. The compound further gave an Excretion in data set [3] (tissue Feces) of 83%. The Excretion in data set [3] (tissue Urine) stood at 13%.

As a reminder, the Tmax is the time at which the peak concentration occurs. A word on the half-life: it is the time needed for the level to fall by half in the phase considered.
